Measurements reported in publication PMC10607100, “Anticancer and Antiphytopathogenic Activity of Fluorinated Isatins and Their Water-Soluble Hydrazone Derivatives” (International Journal of Molecular Sciences, 2023).

Columns and labels:
WI38 = assay: MTT cell viability test, WI38; assay type: cell-based, human; details: for IC50: Homo sapiens, WI-38, incubation time 24 h
Method: (§1) Human cell cultures of tumor origin—HeLa (cervical tumor), HuTu 80 (human duodenal adenocarcinoma), ChangLiver (human liver HeLa-like line), and normal cell line WI38, VA 13 subline 2RA is a diploid human cell strain composed of fibroblasts derived from healthy lung tissue provided by The Gamaleya National Center for Epidemiology and Microbiology, as well as the Institute of Cytology of the Russian Academy of Sciences. They were grown in a nutrient medium DMEM (PanEco, Moscow, Russia) and MEM (PanEco, Moscow, Russia), containing fetal bovine serum (10% by volume) (ThermoFisher Scientific, Paisley, UK), Glutamax (2 mM) (Gibco, Scotland, UK), and penicillin-streptomycin (1% by volume) (PanEco, Moscow, Russia). The cultivation was carried out at 37 °C in a humidified CO2 atmosphere (5%).
(§2) Cell viability was determined by the MTT test. Cells were seeded in a 96-well plate in the amount of 1 × 10^4 cells/200 µL of complete nutrient medium and cultured at 37 °C in CO2 (5%). After 24 h of incubation, various concentrations of test compounds in the range of 0.1 to 100 μM were added to the cell cultures, and then the cells were cultured under the same conditions for 24 and 72 h. For each concentration, the experiment was carried out in triplicate.
(§3) All compounds were dissolved in DMSO and then diluted with the medium to the required concentration. […] The DMSO was also added to the control wells in a volume of 1%. After the incubation time, MTT (3-(4,5-dimethylthiazol-2-yl)-2,5-diphenyltetrazolium bromide, 5 mg/mL) was added to each well, and plates were additionally incubated for 2 h (until the characteristic color appeared).
(§4) Using a plate analyzer (Cytation3, BioTech Instruments Inc., Winooski, VT, USA), the optical density was determined at 530 nm.
(§5) The IC50 parameter was calculated using the AAT Bioquest program.

Chang Liver = assay: MTT cell viability test, Chang liver; assay type: cell-based; details: Homo sapiens, incubation time 24 h
Method: as §1, §2, §3, §4, §5

HuTu 80 = assay: MTT cell viability test, HuTu 80; assay type: cell-based, human; details: for IC50: Homo sapiens, HuTu80, incubation time 24 h; for selectivity (SI) for HuTu 80: IC50 normal cells (WI38) / IC50 HuTu 80
Method: as §1, §2, §3, §4, §5
(§6) The selectivity index (SI) is calculated as the ratio between the IC50 for normal cells and the IC50 for cancer cells.

M-HeLa = assay: MTT cell viability test, M-HeLa; assay type: cell-based, human; details: for IC50: Homo sapiens, M-HeLa, incubation time 24 h; for selectivity (SI) for M-HeLa: IC50 normal cells (WI38) / IC50 M-HeLa
Method: as §1, §2, §3, §4, §5, §6

platelet aggregation = assay: Platelet aggregation, Born method; assay type: cell-based, human; details: for reduction of the maximum platelet aggregation, on average: text summary for 3a and 3b
Method: The in vitro experiments were performed using the blood of healthy male donors aged 18-24 years (a total of 54 donors). This study was approved by the Ethics Committee of the Federal State Budgetary Educational Institution of Higher Education at the Bashkir State Medical University of the Ministry of Health of the Russian Federation (No. 2, dated 17 October 2012). Informed consent was obtained from all participants before blood sampling. The blood was collected from the cubital vein using the vacuum blood collection system BD Vacutainer® (Becton, Dickinson, and Company, Franklin Lakes, NJ, USA). […] The study of the effect on platelet aggregation was performed using the Born method using the aggregometer «[…], Moscow, Russia). The assessment of the antiplatelet activity of the studied compounds and reference preparations was started with a final concentration of 2 × 10^-3 mol/L. Adenosine diphosphate (ADP; 20 μg/mL) and collagen (5 mg/mL) manufactured by […] Company, Barnaul, Russia, were used as inducers of aggregation. The study on the anticoagulant activity was performed by standard recognized clotting tests using the optical two-channel automatic analyzer of blood coagulation, Solar […] SOLAR, Minsk, Belarus). The following parameters were studied: activated partial thromboplastin time (APTT), prothrombin time (PT), and fibrinogen concentrations according to the Clauss method. The determination of the anticoagulant activity of the studied compounds and reference preparation was performed at a concentration of 5 × 10^-4 g/mL using the reagents manufactured by […] Company (Barnaul, Russia). The results of the study were processed using the statistical package Statistica 10.0 (StatSoft Inc., Tulsa, OK, USA). The Shapiro-Wilk's test was used to check the normality of the [NT] distribution. The form of distribution of the data obtained differed from the normal one; therefore, non-parametric methods were used for further analysis. The data were presented as medians and 25 and 75 percentiles. An analysis of variance was conducted using the Kruskal-Wallis test.

HuTu 80 cells [1] = assay: ROS production, CellROX Deep Red flow cytometry; assay type: cell-based, human
Method: ROS generation was investigated using a flow cytometry assay and the CellROX® Deep Red flow cytometry kit. For this, HuTu 80 cells were harvested at 2000 rpm for 5 min and then washed twice with ice-cold PBS, followed by resuspension in 0.1 mL of medium without FBS, to which was added 0.2 μL of CellROX® Deep Red and incubated at 37 °C for 30 min. After three times washing the cells and suspending them in PBS, the production of ROS in the cells was immediately monitored using a flow cytometer (Guava easyCyte, Merck, Rahway, NJ, USA).

HuTu 80 cells [2] = assay: Mitochondrial membrane potential, JC-10 flow cytometry; assay type: cell-based, human; details: 24 h; concentrations corresponding to IC50
Method: To analyze the effect of compounds on changes in the mitochondrial membrane potential, we performed flow cytometry using JC-10 fluorescent dye (in the Mitochondria Membrane Potential Kit). In normal cells (with high membrane potential), JC-10 accumulates in the mitochondrial matrix, where it forms aggregates with red fluorescence. However, in apoptotic cells, JC-10 diffuses out of mitochondria, converts to its monomeric form, and emits green fluorescence, which is recorded by a flow cytometer. Cells were harvested at 2757 g for 5 min and then washed twice with ice-cold PBS, followed by resuspension in JC-10 (10 µg/mL) and incubation at 37 °C for 10 min. Then, the cells were rinsed three times and suspended in PBS, and the JC-10 fluorescence was observed by flow cytometry (Guava easyCyte, Merck, Rahway, NJ, USA).

HuTu 80 cells [3] = assay: Apoptosis induction, annexin V/propidium iodide flow cytometry; assay type: cell-based, human; details: 24 h; IC50 concentration of 40 μM
Method: HuTu 80 cells at 1 × 10^6 cells/well in a final volume of 2 mL were seeded into six-well plates. After 24 h of incubation, various concentrations of tested compounds were added to the wells. The cells were harvested at 2757 g for 5 min and then washed twice with ice-cold PBS, followed by resuspension in binding buffer. Next, the samples were incubated with 5 μL of annexin V-Alexa Fluor 647 (Sigma-Aldrich, Burlington, MA, USA) and 5 μL of propidium iodide for 15 min at room temperature in the dark. Finally, the cells were analyzed by flow cytometry (Guava easyCyte, Merck, Rahway, NJ, USA) within 1 h. The experiments were repeated three times.

IC50 (M-HeLa) [µM]	Structure (SMILES)	cytotoxicity against the healthy cell line WI38 (WI38)	IC50 (WI38) [µM]	IC50 (Chang Liver) [µM]	IC50 (HuTu 80) [µM]	selectivity (SI) for HuTu 80 (HuTu 80)	lengthening of the lag-period relative to the control (platelet aggregation)	reduction of the maximum platelet aggregation, on average (platelet aggregation) [%]	increase in ROS production relative to the control (HuTu 80 cells [1]; 12.5 µM) [fold]	increase in ROS production relative to the control (HuTu 80 cells [1]; 25 µM) [times]	green fluorescence increased relative to the control (HuTu 80 cells [2])	selectivity (SI) for M-HeLa (M-HeLa)	ROS production relative to the control (HuTu 80 cells [1])	apoptosis-inducing activity (HuTu 80 cells [3])	cytotoxicity, times higher than the reference drug 5-FU (M-HeLa; cell line not given) [times]
74.6 ± 5.9	O=C1C(=O)N(Cc2ccccc2F)c2ccc(F)cc21 [Compound 3a, 5-Fluoro-1-(2-fluorobenzyl)indoline-2,3-dione]	low cytotoxicity	62 ± 2	53 ± 4.2	25.2 ± 1.9	2.5	more than 10%	~12	1.1	7.1					
53.8 ± 4.3	O=C1C(=O)N(Cc2c(F)cccc2Cl)c2ccc(F)cc21 [Compound 3d, 1-(2-Chloro-6-fluorobenzyl)-5-fluoroindoline-2,3-dione]	low cytotoxicity	78.3 ± 8	> 100	31 ± 2.4	2.5					up to 55%	1.5	increased ROS production		
62 ± 4.9	O=c1[nH]cc(F)c(=O)[nH]1 [Compound 5-FU, 5-fluorouracil, reference compound]		62 ± 4.2	19 ± 1.7		≤ 1						≤ 1			
32.1 ± 2.5	O=C1C(=O)N(Cc2ccccc2Cl)c2ccc(F)cc21 [Compound 3b, 1-(2-Chlorobenzyl)-5-fluoroindoline-2,3-dione]	low cytotoxicity	58.1 ± 6.6	71.5 ± 5.6	38.3 ± 3	1.5	more than 10%	~12			up to 55%	1.8	increased ROS production	highest apoptosis-inducing activity	2.0
